Assay results: BigSolDB 2.1

NC(N)=S
solubility (mole fraction)
Details | 283.15 K | 288.15 K | 293.15 K | 298.15 K | 303.15 K | 308.15 K | 313.15 K
in ethanol | 0.0185 | 0.0206 | 0.0222 | 0.025 | 0.027 | 0.0315 | 0.0348
in methanol | 0.0421 | 0.046 | 0.0501 | 0.054 | 0.061 | 0.065 | 0.0744
in n-propanol | 0.0185 | 0.0206 | 0.0222 | 0.025 | 0.027 | 0.0315 | 0.0348
